Data set [1] has as its target T1, PPARγ (Mus musculus, UniProt P37238).
T1 sequence (P37238 204-505): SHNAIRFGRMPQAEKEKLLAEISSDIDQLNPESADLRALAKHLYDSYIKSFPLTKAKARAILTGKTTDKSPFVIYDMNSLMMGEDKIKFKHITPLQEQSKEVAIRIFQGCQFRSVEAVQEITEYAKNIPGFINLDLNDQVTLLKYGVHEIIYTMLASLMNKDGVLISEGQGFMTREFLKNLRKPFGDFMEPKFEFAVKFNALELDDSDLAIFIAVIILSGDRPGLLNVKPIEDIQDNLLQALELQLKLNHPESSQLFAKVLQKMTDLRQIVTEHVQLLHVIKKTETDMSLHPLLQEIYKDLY
Put plainly: Radioligand binding assay (scintillation proximity), GST-PPARγ-LBD fusion protein. On the set-up: PPARγ (aa 174 to 476). Conditions: radioligand binding (SPA). From the text:
Background information on the performed assays can be found in: Nichols J S et al. “Development of a scintillation proximity assay for peroxisome proliferator-activated receptor gamma ligand binding domain”, (1998) Anal. Biochem. 257: 112–119.
(§1) Full-length cDNA clones for human PPARα and mouse PPARγ were obtained by RT-PCR from human adipose and mouse liver cRNA, respectively, cloned into plasmid vectors and verified by DNA sequencing. Bacterial and mammalian expression vectors were constructed to produce glutathione-s-transferase (GST) and Gal4 DNA binding domain proteins fused to the ligand binding domains (LBD) of PPARγ (aa 174 to 476) and PPARα (aa 167 to 469). To accomplish this, the portions of the cloned sequences encoding the LBDs were amplified from the full-length clones by PCR and then subcloned into the plasmid vectors. Final clones were verified by DNA sequence analysis.
(§2) Induction, expression, and purification of GST-LBD fusion proteins were performed in E. coli strain BL21 (pLysS) cells by standard methods (Ref: Current Protocols in Molecular Biology, Wiley Press, edited by Ausubel et al.).
(§3) Radioligand Binding Assay
PPARγ receptor binding was assayed in TKE50 (50 mM Tris-HCl, pH 8, 50 mM KCl, 2 mM EDTA, 0.1 mg/ml fatty acid-free BSA and 10 mM DTT). For each 96 well reaction an 140 ng equivalent of GST-PPARγ-LBD fusion protein was bound to 10 ug SPA beads (PharmaciaAmersham) in a final volume of 50 ul by shaking. The resulting slurry was incubated for 1 h at RT and centrifuged for 2 min at 1300 g. The supernatant containing unbound protein was removed and the semidry pellet containig the recptor-coated beads was resolved in 50 ul of TKE. For radioligand binding e.g. 10000 dpm 2(S)-(2-benzoyl-phenylamino)-3-{4-[1,1-ditritio-2-(5-methyl-2-phenyl-oxazol-4-yl)-ethoxy]-phenyl}-propionic acid in 50 ul were added, the reaction incubated at RT for 1 h and scintillation proximity counting performed. All binding assays were performed in 96 well plates and the amount of bound ligand measured on a Packard TopCount using OptiPlates (Packard). Nonspecific binding was determined in the presence of 10^−4 M unlabelled compound. Dose response curves were done in triplicates within a range of concentration from 10^−10 M to 10^−4 M.
A general note: Scintillation proximity formats need no separation of bound from free tracer.

The target in data set [2] is T1, PPARγ. In words: Luciferase transcriptional reporter gene assay, BHK21 cells transfected with pFA-PPARγ-LBD. It is filed as cell-based. On the set-up: PPARγ (aa 174 to 476); expressed in transfected cells; host or cells: BHK21 (ATCC CCL10). The conditions noted are these: Gal4-PPARγ-LBD.
From the text: as §1
(§4) Luciferase Transcriptional Reporter Gene Assays
(§5) Baby hamster kidney cells (BHK21 ATCC CCL10) were grown in DMEM medium containing 10% FBS at 37° C. in a 95%02:5%CO2 atmosphere. Cells were seeded in 6 well plates at a density of 10^5 Cells/well and then batch-transfected with either the pFA-PPARγ-LBD or pFA-PPARα-LBD expression plasmids plus a reporter plasmid and an expression plasmid encoding the secretable form of alkaline phosphatase (SEAP) as a normalization control. […] Six hours following transfection, the cells were harvested by trypsinization and seeded in 96 well plates at a density of 10^4 cells/well. After 24 hours to allow attachment of cells, the medium was removed and replaced with 100 ul of phenol red-free medium containing the test substances or control ligands (final DMSO concentration: 0.1%). Following incubation of the cells for 24 hours with substances, 50 ul of the supernatant was recovered and analyzed for SEAP activity (Roche Molecular Biochemicals). The remainder of the supernatant was discarded, 50 ul PBS was added per well followed by one volume of Luciferase Constant-Light Reagent (Roche Molecular Biochemicals) to lyse the cells and initiate the luciferase reaction. Luminescence for both SEAP and luciferase was measured in a Packard TopCount. Luciferase activity was normalized to the SEAP control and transcriptional activation in the presence of a test substance was expressed as fold-activation over cells incubated in the absence of the substance. EC50 values were calculated using the XLfit program (ID Business Solutions Ltd. UK).
(A reporter such as luciferase makes a cellular process visible.)

Data set [3] addresses T2, PPARα (Homo sapiens, UniProt Q07869).
T2 sequence (Q07869 167-468 limits assumed): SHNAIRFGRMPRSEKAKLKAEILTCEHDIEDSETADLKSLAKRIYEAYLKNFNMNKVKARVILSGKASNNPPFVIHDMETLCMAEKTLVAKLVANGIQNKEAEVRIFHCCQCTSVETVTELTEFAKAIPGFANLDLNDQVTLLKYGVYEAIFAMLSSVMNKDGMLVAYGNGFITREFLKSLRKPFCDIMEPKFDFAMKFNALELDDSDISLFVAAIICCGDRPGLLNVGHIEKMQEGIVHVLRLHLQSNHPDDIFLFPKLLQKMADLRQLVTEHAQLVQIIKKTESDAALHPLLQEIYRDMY
In words: Luciferase transcriptional reporter gene assay, BHK21 cells transfected with pFA-PPARα-LBD. It is filed as cell-based. On the set-up: PPARα (aa 167 to 469); expressed in transfected cells; host or cells: BHK21 (ATCC CCL10). Conditions: Gal4-PPARα-LBD.
From the text: (§6) Full-length cDNA clones for human PPARα and mouse PPARγ were obtained by RT-PCR from human adipose and mouse liver cRNA, respectively, cloned into plasmid vectors and verified by DNA sequencing. […] To accomplish this, the portions of the cloned sequences encoding the LBDs were amplified from the full-length clones by PCR and then subcloned into the plasmid vectors. Final clones were verified by DNA sequence analysis.
as §4, §5

The target in data set [4] is T2, PPARα. Put plainly: Radioligand binding assay, GST-PPARα-LBD fusion protein. On the set-up: PPARα (aa 167 to 469).
From the text: as §6, §2, §3
PPARα receptor binding was assayed in TKE10 (10 mM Tris-HCl, pH 8, 50 mM KCl, 2 mM EDTA, 0.1 mg/ml fatty acid free BSA and 10 mM DTT). […]
PPARγ receptor binding was assayed in TKE50 (50 mM Tris-HCl, pH 8, 50 mM KCl, 2 mM EDTA, 0.1 mg/ml fatty acid-free BSA and 10 mM DTT). […] All binding assays were performed in 96 well plates and the amount of bound ligand measured on a Packard TopCount using OptiPlates (Packard). Nonspecific binding was determined in the presence of 10^−4 M unlabelled compound. […]

This is an account of results in US7109225B2, “Substituted oxazole derivatives” (Hofmann-la Roche Inc., priority 2002, dated 2006).

For orientation: IC50 means the midpoint of a concentration-inhibition curve. Low readings indicate higher potency, high ones lower potency. As a reminder, the melting point is the temperature of the solid-liquid transition. What is called EC50 is the concentration that produces a half-maximal response. A higher EC50 goes with a need for much substance. In turn, `CCCOC(Cc1ccc(OCCc2nc(C3CC3)oc2C)c2ccsc12)C(=O)O` (stereo not shown) [Example 31, 3-{4-[2-(2-Cyclopropyl-5-methyl-oxazol-4-yl)-ethoxy]-benzo[b]thiophen-7-yl}-2-propoxy-propionic acid] returned a melting point of 61 to 63 °C. At PPARγ [1], this compound returned a 50% inhibitory concentration (IC50) of 202 nM. For the same compound, it took 80 nM to reach a half-maximal effect on PPARγ [2] (EC50). Further, at PPARα [3], the EC50 worked out at 62 nM.

In turn, `CCO[C@@H](Cc1ccc(OCCc2nc(C(C)(C)C)oc2C)c2ccccc12)C(=O)O` [Example 1, (S)-3-{4-[2-(2-tert-Butyl-5-methyl-oxazol-4-yl)-ethoxy]-naphthalen-1-yl}-2-ethoxy-propionic acid] showed a melting point of 103 to 105 °C. At PPARγ [1], this compound showed an IC50 of 153 nM. This compound had a 50% inhibitory concentration (IC50) on PPARα [4] of 53 nM. In addition, the concentration for a half-maximal effect (EC50) on PPARγ [2] stood at 237 nM. It took 35 nM to reach a half-maximal effect on PPARα [3] (EC50).

Regarding `Cc1oc(C(C)(C)C)nc1CCOc1ccc(CC(OC(C)C)C(=O)O)c2sccc12` (stereo not shown) [Example 8, 3-{4-[2-(2-tert-Butyl-5-methyl-oxazol-4-yl)-ethoxy]-benzo[b]thiophen-7-yl}-2-isopropoxy-propionic acid], the melting point is 159 to 160 °C. The compound also displayed a half-maximal inhibitory concentration (IC50) at PPARγ [1] of 69 nM. For the same compound, the half-maximal effective concentration (EC50) on PPARγ [2] was determined as 19 nM. At PPARα [3], this compound showed an EC50 of 27 nM.

`CCCOC(Cc1ccc(OCCc2nc(CC(C)(C)C)oc2C)c2ccccc12)C(=O)O` (stereo not shown) [Example 33, 3-(4-{2-[2-(2,2-Dimethyl-propyl)-5-methyl-oxazol-4-yl]-ethoxy}-naphthalen-1-yl)-2-propoxy-propionic acid]: the IC50 on PPARγ [1] was found to be 162 nM. The 50% effective concentration (EC50) on PPARγ [2] was 67 nM; at PPARα [3] it was 6 nM.
